# Reference: publication PMC11271627, “Molecular dynamics-guided optimization of BGM0504 enhances dual-target agonism for combating diabetes and obesity” (Scientific Reports, 2024)
# Marks after values point to notes of the source that are not given here.
# How the values were obtained:
# db/db mice = experiment: Blood glucose reducing effect in db/db mice model; assay type: in vivo; settings: for Insulin in serum: 31 days, ELISA, three days after last dose, Mean±SD, n=11
# Protocol: In contrast, the db/db-ND group received only the drug vehicle via subcutaneous injection. Three parallel experimental groups were established to explore the dose-dependent characteristics of BGM0504 in db/db mice: a low-dose group (0.05 mg/kg), a standard dose group (0.15 mg/kg), and a high-dose group (0.5 mg/kg), each comprising 11 db/db mice. Subsequent administrations were conducted every 3 days following the initial administration, and the experiment spanned 31 days. […] To thoroughly investigate the dose dependence of BGM0504 in db/db mice, we established additional dose groups, including a low-dose group at 0.05 mg/kg and a high-dose group at 0.5 mg/kg. Each experimental group comprised 11 db/db mice. Following the initial administration, subsequent doses were administered every 3 days, spanning a total of 31 days. Throughout this study, we meticulously observed and analyzed a spectrum of parameters encompassing changes in body weight, food intake, non-fasting blood glucose post-initial administration. In this experimental endeavor, we engaged 55 male db/db mice of SPF grade, procured at 6–8 weeks, from Zhejiang Vital River Laboratory Animal Technology Co., Ltd. The animals were divided into groups based on body weight and fasting blood glucose levels. […] The groups included the db/db-ND group, the Tirzepatide-0.15 mg/kg group, the BGM0504-0.05 mg/kg group, the BGM0504-0.15 mg/kg group, and the BGM0504-0.5 mg/kg group, each comprising 11 mice. […] Non-fasting blood glucose levels were measured at 0, 1, 2, 3, 6, 24, 48, and 72 hours post-administration. Three days after the last dose, the mice were weighed. Subsequently, a portion of non-anticoagulated whole blood was collected from the orbital venous plexus under anesthesia. Blood samples were left at room temperature for 30 minutes, then centrifuged at 5000 rpm for 5 minutes. The serum was separated and frozen at -80°C for serum insulin content testing. Serum insulin levels were measured using the enzyme-linked immunosorbent assay (ELISA) method.
# in vivo = experiment: in vivo; set-up: species or system SD rats; settings: rat; for AUC(0-inf) / AUC(0-t): SD
# Protocol: In this experiment, a total of 24 rats (12 of each sex) were provided by Beijing Vitong Lever Experimental Animal Technology Co., Ltd. Each animal was identified using a tail mark and had its health status confirmed by Suzhou WuXi AppTec’s veterinary team before use. The animal room was monitored for temperature and humidity, with data recorded daily to ensure that the relative humidity was maintained at 40%–70% and the temperature was between 20–26°C. The lighting adopted a 12-hour alternating light and dark mode. Regular growth feed was provided daily, and animals had ready access to water. […] Post-administration, the condition of the animals was observed and documented before and after each blood collection point. The ensemble of 24 SD rats was divided into four groups, with three specimens of each gender in each group. Animals in group 1 received a single intravenous bolus of 0.2 mg/kg BGM0504, and groups 2, 3, and 4 received a single subcutaneous injection of 0.3, 1.5, and 7.5 mg/kg BGM0504 in 20 mM citrate buffered solution (pH=7.0±0.2), respectively. Blood samples were collected for pharmacokinetic analysis at specific time points (0.5, 1, 2, 4, 8, 12, 24, 48, 72, 96, and 120 hours) before and after dosing. At the same time, blood glucose levels were measured before and at 1, 4, 8, 12, and 24 hours after dosing. The collected blood samples were transferred to labeled commercial sample tubes containing K2-EDTA, centrifuged, and plasma was retrieved; some were used for analysis, and the other part was reserved as a backup. Plasma was transferred to pre-cooled centrifuge tubes, snap-frozen in dry ice, and stored in an ultra-low temperature freezer at -60°C or lower until transported to the Drug Evaluation Department of WuXi AppTec Shanghai Drug Development Co., Ltd. for analysis.
# [1] = both sexes, Sprague-Dawley, iv, 0.2 mg/kg
# [2] = both sexes, Sprague-Dawley, sc, 0.3 mg/kg
# [3] = both sexes, Sprague-Dawley, sc, 1.5 mg/kg
# [4] = both sexes, Sprague-Dawley, sc, 7.5 mg/kg
smiles,measurement,setting,value
CC[C@H](C)[C@H](NC(=O)[C@H](CC(C)C)NC(=O)[C@H](Cc1c[nH]c2ccccc12)NC(=O)[C@H](CCC(N)=O)NC(=O)[C@@H](NC(=O)[C@H](Cc1ccccc1)NC(=O)[C@H](C)NC(=O)[C@H](CCCCN)NC(=O)[C@H](CCC(N)=O)NC(=O)[C@H](C)NC(=O)[C@@H](NC(=O)[C@H](CCCCN)NC(=O)[C@H](CC(=O)O)NC(=O)[C@H](CC(C)C)NC(=O)C(C)(C)NC(=O)[C@@H](NC(=O)[C@H](CO)NC(=O)[C@H](Cc1ccc(O)cc1)NC(=O)[C@H](CC(=O)O)NC(=O)[C@H](CO)NC(=O)[C@@H](NC(=O)[C@H](Cc1ccccc1)NC(=O)[C@@H](NC(=O)CNC(=O)[C@H](CCC(=O)O)NC(=O)C(C)(C)NC(=O)[C@@H](N)Cc1ccc(O)cc1)[C@@H](C)O)[C@@H](C)O)[C@@H](C)CC)[C@@H](C)CC)C(C)C)C(=O)N[C@@H](C)C(=O)NCC(=O)NCC(=O)N1CCC[C@H]1C(=O)N[C@@H](CO)C(=O)N[C@@H](CO)C(=O)NCC(=O)N[C@@H](C)C(=O)N1CCC[C@H]1C(=O)N1CCC[C@H]1C(=O)N1CCC[C@H]1C(=O)N[C@@H](CO)C(=O)N[C@@H](CCCCNC(=O)COCCOCCOCCNC(=O)COCCOCCOCCNC(=O)CC[C@H](NC(=O)CCCCCCCCCCCCCCCCCCC(=O)O)C(=O)O)C(N)=O [BGM0504],Insulin in serum,db/db mice; 0.05 mg/kg s.c. every 3 days,37649.0±3597.0^a nIU/mL
same,Insulin in serum,db/db mice; 0.15 mg/kg s.c. every 3 days,30897.0±5634.0^a nIU/mL
same,Insulin in serum,db/db mice; 0.5 mg/kg s.c. every 3 days,32774.0±6290.0^a nIU/mL
same,body weight and food intake,db/db mice; early stages of administration,acute decline in body weight and food intake
same,"non-fasting blood glucose within 72 h after first administration, vs db/db-ND group","db/db mice; s.c., Tirzepatide 0.15 mg/kg, BGM0504 0.05, 0.15, 0.5 mg/kg, n = 11",significant blood glucose suppression
same,AUC(0-inf),"in vivo; both sexes, iv, 0.2 mg/kg",50000 ng·h/mL
same,AUC(0-inf),"in vivo; both sexes, sc, 0.3 mg/kg",33400 ng·h/mL
same,AUC(0-t),"in vivo; both sexes, sc, 0.3 mg/kg",33200 ng·h/mL
same,AUC(0-inf),"in vivo; both sexes, sc, 1.5 mg/kg",154000 ng·h/mL
same,AUC(0-t),"in vivo; both sexes, sc, 1.5 mg/kg",153000 ng·h/mL
same,AUC(0-inf),"in vivo; both sexes, sc, 7.5 mg/kg",643000 ng·h/mL
same,AUC(0-t),"in vivo; both sexes, sc, 7.5 mg/kg",637000 ng·h/mL
same,C0,in vivo; [1],4650 ± 411 ng/mL
same,Vd,in vivo; [1],0.0648 ± 0.0058 L/kg
same,clearance,in vivo; [1],4.08 ± 0.618 mL/h/kg
same,half-life,in vivo; [1],13.6 ± 2.3 h
same,Cmax,in vivo; [2],814 ± 111 ng/mL
same,Tmax,in vivo; [2],24 h
same,bioavailability,in vivo; [2],44.5%
same,half-life,in vivo; [2],14.5 ± 1.4 h
same,Cmax,in vivo; [3],3830 ± 705 ng/mL
same,Tmax,in vivo; [3],24 h
same,bioavailability,in vivo; [3],41.1%
same,half-life,in vivo; [3],13.4 ± 1.5 h
same,Cmax,in vivo; [4],15100 ng/mL
same,Tmax,in vivo; [4],20 ± 6.2 h
same,bioavailability,in vivo; [4],34.3%
same,half-life,in vivo; [4],14.7 ± 2.4 h
same,AUC0-24,"in vivo; iv, 0.2 mg/kg",38800 ng·h/mL
same,AUC0-last,"in vivo; iv, 0.2 mg/kg",49800 ng·h/mL
same,AUC0–last (as headed in Table 1),"in vivo; iv, 0.2 mg/kg","38,800 ± 5150 ng h/mL"
same,AUC0–∞ (as headed in Table 1),"in vivo; iv, 0.2 mg/kg","49,800 ± 7470 ng h/mL"
same,AUC0-24,"in vivo; sc, 0.3 mg/kg",14100 ng·h/mL
same,AUC0–last (as headed in Table 1),"in vivo; sc, 0.3 mg/kg","14,100 ± 2440 ng h/mL"
same,AUC0–∞ (as headed in Table 1),"in vivo; sc, 0.3 mg/kg","33,200 ± 6190 ng h/mL"
same,AUC0-24,"in vivo; sc, 1.5 mg/kg",63900 ng·h/mL
same,AUC0–last (as headed in Table 1),"in vivo; sc, 1.5 mg/kg","63,900 ± 11,400 ng h/mL"
same,AUC0–∞ (as headed in Table 1),"in vivo; sc, 1.5 mg/kg","153,000 ± 27,700 ng h/mL"
same,AUC0-24,"in vivo; sc, 7.5 mg/kg",269000 ng·h/mL
same,AUC0–last (as headed in Table 1),"in vivo; sc, 7.5 mg/kg","269,000 ± 43,000 ng h/mL"
same,AUC0–∞ (as headed in Table 1),"in vivo; sc, 7.5 mg/kg","637,000 ± 88,700 ng h/mL"
